Target: Carbonic anhydrase 9 (Homo sapiens, UniProt Q16790)

Row | Ki | Structure (SMILES)
1 | 0.033 µM | NS(=O)(=O)c1ccc2c(c1)CC(NC(=O)c1c(F)c(F)c(F)c(F)c1F)C2 (configuration not stated)
2 | 0.0037 µM | CCCCCCCCCC(=O)NC1Cc2ccc(S(N)(=O)=O)cc2C1 (configuration not stated)

— ChEMBL document CHEMBL1147657, “Indanesulfonamides as carbonic anhydrase inhibitors. Toward structure-based design of selective inhibitors of the tumor-associated isozyme CA IX” (J Med Chem, 2006)
